Measured values: publication PMC3349722, “Prediction of Drug-Target Interactions and Drug Repositioning via Network-Based Inference” (PLoS Computational Biology, 2012)
Structures can show the parent of a compound that is named as a salt. Where two headings read alike, the source gives them in different places.

How the values were obtained:
[1] = biological target: ERβ (Homo sapiens, UniProt Q92731); test: Yeast two-hybrid system-based assay (ERβ LBD/SRC1, α-galactosidase), agonist and antagonist mode; format: cell-based; settings: for Inhibitive Ratio% (10 μM), ERβ: antagonist assay with 1 nM E2; for IC50: read-out: IC50 on ERβ (antagonistic activity)
ERβ, sequence (Q92731 248-510): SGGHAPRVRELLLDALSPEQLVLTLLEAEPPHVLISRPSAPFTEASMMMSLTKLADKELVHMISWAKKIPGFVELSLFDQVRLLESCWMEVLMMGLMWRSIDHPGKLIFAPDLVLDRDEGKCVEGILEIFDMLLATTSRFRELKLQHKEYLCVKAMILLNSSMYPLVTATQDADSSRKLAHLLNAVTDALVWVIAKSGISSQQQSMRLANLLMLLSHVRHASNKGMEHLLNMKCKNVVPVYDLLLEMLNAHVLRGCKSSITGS

[2] = biological target: T1, ERα (Homo sapiens, UniProt P03372); test: Yeast two-hybrid system-based assay (ERα LBD/SRC1, α-galactosidase), agonist and antagonist mode; format: cell-based; settings: for Agonistic activities (10 μM), ERα: DMSO = 1; for Inhibitive ratio % (10 μM), ERα: antagonist assay with 1 nM E2; for EC50: agonist testing
T1 sequence (P03372 301-553): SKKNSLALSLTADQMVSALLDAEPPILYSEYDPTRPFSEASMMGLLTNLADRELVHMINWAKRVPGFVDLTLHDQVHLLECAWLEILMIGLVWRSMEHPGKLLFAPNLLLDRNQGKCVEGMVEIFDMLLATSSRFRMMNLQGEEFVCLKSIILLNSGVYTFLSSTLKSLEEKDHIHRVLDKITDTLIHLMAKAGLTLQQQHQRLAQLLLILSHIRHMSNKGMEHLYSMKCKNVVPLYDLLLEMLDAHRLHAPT

[3] = biological target: T2, human recombinant DPP-IV (Homo sapiens, UniProt P27487); test: Dipeptidyl peptidase-IV inhibition assay (DPP-IV Drug Discovery Kit, fluorimetric); format: biochemical; settings: for Inhibition Ratio (%) to DPP-IV: test concentration not given
T2 construct: purchased Biomol
T2 sequence (P27487 whole entry): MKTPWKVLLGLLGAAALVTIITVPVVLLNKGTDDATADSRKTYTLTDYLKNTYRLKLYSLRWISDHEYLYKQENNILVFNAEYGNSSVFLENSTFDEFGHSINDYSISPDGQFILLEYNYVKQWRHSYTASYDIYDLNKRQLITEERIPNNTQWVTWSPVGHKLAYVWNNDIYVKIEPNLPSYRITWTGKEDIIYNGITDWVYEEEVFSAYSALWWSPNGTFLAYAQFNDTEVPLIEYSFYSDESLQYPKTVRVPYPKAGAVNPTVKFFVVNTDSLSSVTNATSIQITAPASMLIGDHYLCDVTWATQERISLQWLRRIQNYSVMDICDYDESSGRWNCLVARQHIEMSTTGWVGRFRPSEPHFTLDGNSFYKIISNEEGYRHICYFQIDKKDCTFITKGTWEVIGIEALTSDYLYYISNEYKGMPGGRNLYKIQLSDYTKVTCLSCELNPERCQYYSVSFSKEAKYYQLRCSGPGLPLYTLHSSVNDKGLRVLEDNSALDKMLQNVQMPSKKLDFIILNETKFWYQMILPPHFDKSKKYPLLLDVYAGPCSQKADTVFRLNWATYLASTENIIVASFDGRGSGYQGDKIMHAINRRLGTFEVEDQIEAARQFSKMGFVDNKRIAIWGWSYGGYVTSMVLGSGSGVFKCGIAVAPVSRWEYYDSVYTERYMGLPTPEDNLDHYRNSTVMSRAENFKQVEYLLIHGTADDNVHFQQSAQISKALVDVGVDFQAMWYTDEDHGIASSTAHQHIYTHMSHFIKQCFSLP
Protocol: The inhibitory effects of compounds on human recombinant DPP-IV was determined using a DPP-IV Drug Discovery Kit (Biomol, USA) according to the manufacturer's instructions. The activity of DPP-IV was detected in a Synergy™ 2 Multi-Mode Microplate Reader (BioTek) at an excitation wavelength of 380 nm and an emission wavelength of 460 nm. […] IC50 values were determined using the GraphPad Prism 4 software with three independent determinations.
Table S4. The inhibitive activities profiles of nine approved drugs for dipeptidyl peptidase -IV
(DPP -IV ) enzyme inhibition assay. The inhibitory effects of compounds on human recombinant
DPP4 was determined using a DPP -IV Drug Discovery Kit (Biomol, USA) according to the
manufacturer ’s instructions. The DPP-IV Drug Discovery Kit is a complete assay system designed
to screen DPP 4 small molecule inhibitors. The fluorimetric assay is based on the cleavage of
7- a mino -4-methylcoumarin (AMC) moiety from peptide substrate (H-Gly-P ro-AMC), which
increases its fluorescence intensity at 460 nm. Compounds dilutions were prepared from stock in
DMSO and diluted with assay buffer for inhibition assay. A 40 μL solution of DPP -IV enzyme in
assa y buffer was incubated with 10μ L of various concentrations of test compoundsolutions for 10
min at room temperature. The reaction was initiated b y the addition of 50 μL of H-Gly-P ro- AMC
with a final concentration of 5 μM. The activity of DPP4 was detected in a Synergy™ 2
Multi-Mode Microplate Reader (BioTek) at an excitation wavelength of 380 nm and an emission
wavelength of 460 nm. […] IC 50 values were
determined by using the G raphP ad Prism 4 software with three independent determinations.

[4] = test system: ERα and ERβ; test: Yeast two-hybrid system-based assay, summary statements on ER (subtype not separated)
[5] = test system: MDA-MB-231 cells; test: MTT assay of cell proliferation; format: cell-based; settings: Homo sapiens, MDA-MB-231 breast cancer cell line, 24 h, read-out: Antiproliferative activity IC50
Protocol: Cell proliferation was quantified by MTT assay. MDA-MB-231 cells were seeded at a density of 1.5×10^4 in a 96-well plate with DMEM/F12 supplemented with 10% charcoal stripped FBS without phenol red, and then incubated with the tested compounds in humidified air containing 5% CO2 at 37°C. After incubation for 24 h, 20 µL of 5 mg/mL MTT was added and incubated for another 4 h. Then the converted dye was dissolved in 100 µL of DMSO and the absorbance was measured at 570 nm.

| Compound | Inhibitive Ratio% (10 μM), ERβ [1] | Agonistic activities (10 μM), ERβ ([1]; DMSO = 1) | Agonistic activities (10 μM), ERα [2] | further results |
| --- | --- | --- | --- | --- |
| 17-hydroxyprogesterone | 13.01% | 0.961 | – | – |
| CCC1(c2ccc(N)cc2)CCC(=O)NC1=O (racemic) [Dl-aminoglutethimide] | – | – | 0.956 | – |
| N[C@@H]1C[C@H]1c1ccccc1 (racemic) [Tranylcypromine] | 0% | 0.965 | 0.988 | Inhibitive ratio % (10 μM), ERα [2]: 4.3% |
| NC(=O)N1c2ccccc2C=Cc2ccccc21 [Carbamazepine] | – | – | – | Inhibition Ratio (%) to DPP-IV [3]: 19.67% |
| CN/C(=N/CCSCc1nc[nH]c1C)NC#N [Cimetidine] | – | – | 1.018 | Inhibitive ratio % (10 μM), ERα [2]: 2.4% |
| O=C(O)Cc1ccccc1Nc1c(Cl)cccc1Cl [Diclofenac] | – | 0.846 | – | IC50 [1]: 2320 nM; IC50 or EC50 values on ER [4]: less than 10 μM |
| C[C@]12CC[C@@H]3c4ccc(O)cc4CC[C@H]3[C@@H]1CC[C@@H]2O [E2, estradiol] | – | – | – | Agonistic activities, ERβ, E2 control ([1]; 1 nM, DMSO = 1): 5.77 |
| CC(C)C(=O)Nc1ccc([N+](=O)[O-])c(C(F)(F)F)c1 [Flutamide] | 2.83% | 0.949 | – | – |
| Cc1ccc(C)c(OCCCC(C)(C)C(=O)O)c1 [Gemfibrozil] | – | – | – | Inhibition Ratio (%) to DPP-IV [3]: 17.35% |
| CN(C)C(=O)C(CCN1CCC(O)(c2ccc(Cl)cc2)CC1)(c1ccccc1)c1ccccc1 [Loperamide] | 0% | 0.910 | 0.934 | Inhibitive ratio % (10 μM), ERα [2]: 6.18% |
| CC[C@H](C)C(=O)O[C@H]1C[C@@H](C)C=C2C=C[C@H](C)[C@H](CC[C@@H]3C[C@@H](O)CC(=O)O3)[C@H]21 [Lovastatin] | – | – | – | Inhibition Ratio (%) to DPP-IV [3]: 9.49% |
| CC(C)(O)c1ccccc1CC[C@@H](SCC1(CC(=O)O)CC1)c1cccc(/C=C/c2ccc3ccc(Cl)cc3n2)c1 [Montelukast] | – | – | – | Inhibition Ratio (%) to DPP-IV [3]: 49.7%; IC50 ([3]; three independent determinations): 9790 nM |
| C=CCN1CC[C@]23c4c5ccc(O)c4O[C@H]2C(=O)CC[C@@]3(O)[C@H]1C5 [Naloxone HCl] | 0% | 1.051 | – | – |
| COC(=O)C1=C(C)NC(C)=C(C(=O)OCCN(C)Cc2ccccc2)C1c1cccc([N+](=O)[O-])c1 (stereo not shown) [Nicardipine] | – | – | 0.962 | Inhibition Ratio (%) to DPP-IV [3]: 21.24%; Inhibitive ratio % (10 μM), ERα [2]: 15.21% |
| Nc1nc2c(ncn2CCC(CO)CO)c(=O)[nH]1 [Penciclovir] | 0% | 0.947 | – | – |
| CC[C@@H]1C(=O)OC[C@@H]1Cc1cncn1C.Cl [Pilocarpine HCl] | – | – | 1.008 | – |
| O=c1[nH]c2ccccc2n1C1CCN(CCCC(c2ccc(F)cc2)c2ccc(F)cc2)CC1 [Pimozide] | – | – | 0.955 | Inhibitive ratio % (10 μM), ERα [2]: 4.58% |
| CCc1ccc(CCOc2ccc(CC3SC(=O)NC3=O)cc2)nc1 (stereo not shown) [Pioglitazone] | – | – | – | Inhibition Ratio (%) to DPP-IV [3]: 18.63% |
| CCC(C)(C)C(=O)O[C@H]1C[C@@H](C)C=C2C=C[C@H](C)[C@H](CC[C@@H]3C[C@@H](O)CC(=O)O3)[C@H]21 [Simvastatin] | – | – | – | IC50 [5]: 1490 nM |
| NS(=O)(=O)Cc1noc2ccccc12 [Zonisamide] | – | 1.029 | – | – |

More lines, main results first:

| Inhibitive Ratio% (10 μM), ERβ [1] | Agonistic activities (10 μM), ERβ ([1]; DMSO = 1) | Agonistic activities (10 μM), ERα [2] | Compound | further results |
| --- | --- | --- | --- | --- |
| – | 1.011 | – | CC(C)(C#N)c1cc(Cn2cncn2)cc(C(C)(C)C#N)c1 [Anastrozole] | – |
| 3.11% | 0.981 | – | CN(C)CCCN1c2ccccc2Sc2ccc(Cl)cc21 [Chlorpromazine HCl] | – |
| 0% | 0.894 | – | CC(=O)OCC(CCn1cnc2cnc(N)nc21)COC(C)=O [Famciclovir] | – |
| 51.99% | 1.890 | 4.132 | CCC(C)n1ncn(-c2ccc(N3CCN(c4ccc(OCC5COC(Cn6cncn6)(c6ccc(Cl)cc6Cl)O5)cc4)CC3)cc2)c1=O (stereo not shown) [Itraconazole] | IC50 ([1]; antagonist assay): 280 nM; IC50 or EC50 values on ER [4]: less than 1 μM; IC50 or EC50 values on ER ([4]; listed as itraconazole): less than 10 μM; Inhibitive ratio % (10 μM), ERα [2]: 8.19%; EC50 ([2]; REC50 on ERα (concentration showing 50% of the maximum agonistic activity of E2), relative to E2): 320 nM; EC50 ([2]; read-out: EC50 on ERα (agonistic activity)): 200 nM |
| – | 0.853 | – | CC(=O)N1CCN(c2ccc(OCC3COC(Cn4ccnc4)(c4ccc(Cl)cc4Cl)O3)cc2)CC1 (stereo not shown) [Ketoconazole] | IC50 [5]: 8950 nM; IC50 [1]: 790 nM; IC50 or EC50 values on ER [4]: less than 1 μM; IC50 or EC50 values on ER ([4]; listed as ketoconazole): less than 10 μM |
| – | – | 0.995 | CS(=O)(=O)CCNCc1ccc(-c2ccc3ncnc(Nc4ccc(OCc5cccc(F)c5)c(Cl)c4)c3c2)o1 [Lapatinib] | Inhibition Ratio (%) to DPP-IV [3]: 39.64%; Inhibitive ratio % (10 μM), ERα [2]: 14.01% |
| 0% | 0.846 | – | N#Cc1ccc(C(c2ccc(C#N)cc2)n2cncn2)cc1 [Letrozole] | – |
| 0% | 0.914 | – | COc1ccc2[nH]cc(CCNC(C)=O)c2c1 [Melatonin] | – |
| 27.16% | 1.080 | 1.463 | CC#C[C@]1(O)CC[C@H]2[C@@H]3CCC4=CC(=O)CCC4=C3[C@@H](c3ccc(N(C)C)cc3)C[C@@]21C [Mifepristone] | Inhibitive ratio % (10 μM), ERα [2]: 0% |
